Source: publication PMC3272328 (2011)
Where a chain is given by its changes, count along the chain named.

Assays:
Type in all cases: biochemical
soluble guanylyl cyclase [1] = molecular target: T1, soluble guanylyl cyclase (Homo sapiens, UniProt Q02108+Q02153); experiment: cGMP ELISA enzyme assay
T1 sequence (Q02153 1-619): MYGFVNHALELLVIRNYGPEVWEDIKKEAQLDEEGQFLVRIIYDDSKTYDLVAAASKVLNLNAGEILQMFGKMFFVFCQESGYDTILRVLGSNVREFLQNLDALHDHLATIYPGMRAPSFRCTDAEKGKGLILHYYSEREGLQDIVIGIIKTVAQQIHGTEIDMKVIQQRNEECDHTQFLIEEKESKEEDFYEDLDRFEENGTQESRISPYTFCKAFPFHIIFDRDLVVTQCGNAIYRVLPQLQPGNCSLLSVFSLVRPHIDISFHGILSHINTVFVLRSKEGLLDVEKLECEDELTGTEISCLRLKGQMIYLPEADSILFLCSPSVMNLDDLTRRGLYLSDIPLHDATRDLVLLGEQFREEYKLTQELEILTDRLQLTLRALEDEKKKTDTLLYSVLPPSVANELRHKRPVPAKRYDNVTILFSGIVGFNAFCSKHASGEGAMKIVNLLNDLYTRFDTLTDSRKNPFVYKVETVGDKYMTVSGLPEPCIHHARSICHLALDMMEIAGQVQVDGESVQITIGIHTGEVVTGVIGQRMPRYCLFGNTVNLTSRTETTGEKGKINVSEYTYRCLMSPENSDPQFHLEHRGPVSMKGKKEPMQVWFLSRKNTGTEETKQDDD
T1 sequence (Q02108 1-690): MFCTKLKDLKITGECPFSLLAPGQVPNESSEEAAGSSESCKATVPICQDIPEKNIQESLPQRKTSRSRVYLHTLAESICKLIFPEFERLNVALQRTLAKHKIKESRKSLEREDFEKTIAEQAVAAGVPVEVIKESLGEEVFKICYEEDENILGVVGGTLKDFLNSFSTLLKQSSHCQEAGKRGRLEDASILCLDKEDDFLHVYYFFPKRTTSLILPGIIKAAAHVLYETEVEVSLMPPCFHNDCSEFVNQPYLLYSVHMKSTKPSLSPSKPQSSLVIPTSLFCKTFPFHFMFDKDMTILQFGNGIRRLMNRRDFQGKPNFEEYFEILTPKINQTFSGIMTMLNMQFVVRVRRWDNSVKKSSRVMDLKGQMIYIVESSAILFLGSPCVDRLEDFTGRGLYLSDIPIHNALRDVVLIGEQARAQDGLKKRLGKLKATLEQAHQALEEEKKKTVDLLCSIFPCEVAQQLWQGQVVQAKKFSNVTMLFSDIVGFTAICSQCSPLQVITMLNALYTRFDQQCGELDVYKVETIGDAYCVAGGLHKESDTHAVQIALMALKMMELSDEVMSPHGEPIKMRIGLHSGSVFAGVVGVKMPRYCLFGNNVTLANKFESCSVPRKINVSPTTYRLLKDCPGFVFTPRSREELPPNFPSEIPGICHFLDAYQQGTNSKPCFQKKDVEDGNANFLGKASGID

soluble guanylyl cyclase [2] = molecular target: T2, soluble guanylyl cyclase (Bos taurus, UniProt P16068+P19687); experiment: cGMP ELISA enzyme assay
T2 sequence (P16068 1-619): T1 sequence (Q02153 1-619) with E126D, L290S, S574T, K615E, D618E, D619N
T2 sequence (P19687 1-691): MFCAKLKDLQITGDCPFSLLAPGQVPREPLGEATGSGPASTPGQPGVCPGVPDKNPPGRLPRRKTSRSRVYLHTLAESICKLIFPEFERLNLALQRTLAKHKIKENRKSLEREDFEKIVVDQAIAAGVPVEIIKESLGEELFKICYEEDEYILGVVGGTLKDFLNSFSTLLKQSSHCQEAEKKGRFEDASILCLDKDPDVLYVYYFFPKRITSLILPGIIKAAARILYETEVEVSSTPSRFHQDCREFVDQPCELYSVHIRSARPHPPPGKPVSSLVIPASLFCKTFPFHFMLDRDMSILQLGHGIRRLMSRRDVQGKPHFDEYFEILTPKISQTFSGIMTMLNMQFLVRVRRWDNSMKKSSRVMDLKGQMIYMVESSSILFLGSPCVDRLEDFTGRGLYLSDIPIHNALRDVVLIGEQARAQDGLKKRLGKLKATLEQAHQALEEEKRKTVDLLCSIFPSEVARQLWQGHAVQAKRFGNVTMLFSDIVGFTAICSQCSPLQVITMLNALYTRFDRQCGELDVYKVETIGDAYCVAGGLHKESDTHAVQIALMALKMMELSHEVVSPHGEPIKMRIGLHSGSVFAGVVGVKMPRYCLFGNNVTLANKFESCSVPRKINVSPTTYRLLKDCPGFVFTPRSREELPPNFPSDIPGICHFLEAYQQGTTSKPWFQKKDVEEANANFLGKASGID

soluble guanylyl cyclase [3] = molecular target: T2, soluble guanylyl cyclase; experiment: cGMP production by ELISA at varied GTP

Row | Ki (soluble guanylyl cyclase [2]) [µM] | Structure (SMILES) | cGMP ELISA enzyme assay (soluble guanylyl cyclase [1]) | cGMP production by ELISA at varied GTP; Lineweaver-Burk plot (soluble guanylyl cyclase [3])
1 | 55 | Nc1nc(=O)c2ncn([C@H]3C=C[C@@H](COP(=O)(O)OP(=O)(O)OP(=O)(O)O)C3)c2[nH]1 [carbovir triphosphate] | able to inhibit the activity of purified soluble guanylyl cyclase (both purified native bovine enzyme and recombinant human enzyme) | –
2 | – | Nc1nc2c(ncn2[C@@H]2O[C@H](COP(=O)(O)OP(=O)(O)OP(=O)(O)O)[C@@H](O)[C@H]2O)c(=O)[nH]1 [guanosine triphosphate] | – | we measured the amount of inhibition while varying the concentrations of GTP and carbovir triphosphate
